According to US20210330611A1, “THERAPY FOR NEUROLOGICAL DISEASES/DISORDERS” (priority 2020, published 2021):
Counter-ions that a name gives are not always drawn. Like-named read-outs stand apart in the source and are kept apart here. Where a SMILES comes first, the peptide text is derived from it. [ ]: non-standard residue; d: D form. pGlu = O=C1CC[C@@H](C(=O)O)N1; Thz = O=C(O)[C@@H]1CSCN1

Key:
primary rat microglia [1] = test system: primary rat microglia
[2] = test system: LPS-induced microglia activation; assay: Image-based assay of LPS-induced microglia activation (HTS and dose response); assay type: cell-based, rat; settings: for inhibition at 10 µM: Rattus norvegicus, Microglia, read-out: LPS % inhibition
[3] = test system: fibrin-induced microglia activation; assay: Image-based assay of fibrin-induced microglia activation (HTS and dose response); assay type: cell-based, rat; settings: primary microglia HTS, fibrin stimulation; for inhibition at 10 µM: Rattus norvegicus, Microglia, read-out: Fibrin % inhibition
[4] = test system: fibrin- and LPS-induced microglia activation; assay: cells; assay type: cell-based, rat
primary rat microglia [5] = assay: Cell toxicity (dead cells, size <150 μm2) in coated fibrin (cFib) assay; settings: primary microglia HTS;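 also: share of dead cells sized under 150 µm2 at 10 µM in fibrin-stimulated microglia HTS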
[6] = cell size >800 μm2 as marker of activation
[7] = classification by fibrin and LPS inhibition in HTS
[8] = fibrin stimulation, cell size <150 μm2 as marker of toxicity
[9] = primary microglia HTS, LPS stimulation, compounds at 10 μM
[10] = quadrant by fibrin and LPS inhibition, HTS at 10 μM
[11] = fibrin assay, dead cells (size <150 μm2)
[12] = 48 h, primary microglia HTS, LPS stimulation, cell size >800 μm2 as marker of activation

| SMILES | LPS % cell toxicity (primary rat microglia [1]; rat) [%] | inhibition at 10 µM ([2]; 48 h) [%] | inhibition at 10 µM [3, 6] [%] | Quadrant (FIG. 5b) [4, 7] | Fibrin % cell toxicity (primary rat microglia [5]; [8]) [%] | inhibition at 10 µM [2, 9] [%] | inhibition at 10 µM ([3]; compounds at 10 μM) [%] | Quadrant (FIG. 5b) [4, 10] | Fibrin % cell toxicity (primary rat microglia [5]; [11]) [%] | inhibition at 10 µM [2, 12] [%] | LPS % cell toxicity (primary rat microglia [1]) [%] | LPS % inhibition [2] [%] | Fibrin % inhibition [3, 6] [%] |
| --- | --- | --- | --- | --- | --- | --- | --- | --- | --- | --- | --- | --- | --- |
| O=C1c2ccccc2C(=O)C1c1ccccc1 [Phenindione] | 0 | 0 | -10 | Q4 | 1 |  |  |  |  |  |  |  |  |
| CCC1(c2ccccc2)C(=O)NC(=O)NC1=O [Phenobarbital] | 0 | -7 | -22 | Q4 | 0 |  |  |  |  |  |  |  |  |
| O=C1OC(c2ccc(O)cc2)(c2ccc(O)cc2)c2ccccc21 [Phenolphthalein] | 0 | 13 | 10 | Q4 | 1 |  |  |  |  |  |  |  |  |
| c1ccc2c(c1)Nc1ccccc1S2 [Phenothiazine] | 1 | 24 | -84 | Q4 | 0 |  |  |  |  |  |  |  |  |
| CC1(C)S[C@@H]2[C@H](NC(=O)COc3ccccc3)C(=O)N2[C@H]1C(=O)O [Phenoxymethylpenicillin] | 0 | 14 | 0 | Q4 | 1 |  |  |  |  |  |  |  |  |
| CN1C(=O)CC(c2ccccc2)C1=O (stereo not shown) [Phensuximide] | 0 | 4 | -7 | Q4 | 1 |  |  |  |  |  |  |  |  |
| Cc1ccc(N(CC2=NCCN2)c2cccc(O)c2)cc1 [Phentolamine] | 0 | 17 | -21 | Q4 | 0 |  |  |  |  |  |  |  |  |
| N[C@@H](COP(=O)(O)O)C(=O)O [Phosphonoserine] | 0 | 10 | -6 | Q4 | 1 |  |  |  |  |  |  |  |  |
| CC(=O)NS(=O)(=O)c1ccc(NC(=O)c2ccccc2C(=O)O)cc1 [Phthalylsulfacetamide] | 0 | -1 | 1 | Q4 | 1 |  |  |  |  |  |  |  |  |
| O=C(O)c1ccccc1C(=O)Nc1ccc(S(=O)(=O)Nc2nccs2)cc1 [Phthalylsulfathiazole] | 1 | 13 | 3 | Q4 | 1 |  |  |  |  |  |  |  |  |
| NCc1cccnc1 [Picolamine] | 0 | 4 | -1 | Q4 | 1 |  |  |  |  |  |  |  |  |
| OCc1ccccn1 [Piconol] | 1 | 26 | -1 | Q4 | 1 |  |  |  |  |  |  |  |  |
| O=C1CC[C@@H](C(=O)O)N1 [Pidolic Acid] | 0 | 15 | -57 | Q4 | 1 |  |  |  |  |  |  |  |  |
| O=C1CC[C@@H](C(=O)N2CSC[C@H]2C(=O)O)N1 [Pidotimod] ([pGlu]-[Thz]-OH) | 0 | 14 | -10 | Q4 | 1 |  |  |  |  |  |  |  |  |
| CC[C@@H]1C(=O)OC[C@@H]1Cc1cncn1C [Pilocarpine] | 0 | 14 | -2 | Q4 | 1 |  |  |  |  |  |  |  |  |
| CN1CCC(=C2c3ccccc3Sc3ccccc32)CC1 [Pimethixene Maleate] | 2 |  |  |  |  | 92 | 112 | Q2 | 6 |  |  |  |  |
| CC(C)NCC(O)COc1cccc2[nH]ccc12 (stereo not shown) [Pindolol] | 1 | 24 | -13 | Q4 | 1 |  |  |  |  |  |  |  |  |
| CCc1ccc(CCOc2ccc(CC3SC(=O)NC3=O)cc2)nc1 (stereo not shown) [Pioglitazone] | 1 | 33 | 2 | Q4 | 1 |  |  |  |  |  |  |  |  |
| NC(=O)C1(N2CCCCC2)CCN(CCCC(=O)c2ccc(F)cc2)CC1 [Pipamperone] | 0 |  | -4 | Q4 | 1 |  |  |  |  | 8 |  |  |  |

| SMILES | LPS % cell toxicity (primary rat microglia [1]; rat) [%] | inhibition at 10 µM ([2]; 48 h) [%] | inhibition at 10 µM [3, 6] [%] | Quadrant (FIG. 5b) [4, 7] | Fibrin % cell toxicity (primary rat microglia [5]; [8]) [%] | inhibition at 10 µM [2, 9] [%] | inhibition at 10 µM ([3]; compounds at 10 μM) [%] | Quadrant (FIG. 5b) [4, 10] | Fibrin % cell toxicity (primary rat microglia [5]; [11]) [%] | inhibition at 10 µM [2, 12] [%] | LPS % cell toxicity (primary rat microglia [1]) [%] | LPS % inhibition [2] [%] | Fibrin % inhibition [3, 6] [%] |
| --- | --- | --- | --- | --- | --- | --- | --- | --- | --- | --- | --- | --- | --- |
| CCN1CCCC(OC(=O)C(c2ccccc2)c2ccccc2)C1 (stereo not shown) [Piperidolate Hydrochloride] | 0 |  | -21 | Q4 | 0 |  |  |  |  | 8 |  |  |  |
| O=C(/C=C/C=C/c1ccc2c(c1)OCO2)N1CCCCC1 [Piperine] | 0 | 10 | -13 | Q4 | 1 |  |  |  |  |  |  |  |  |
| NC(=O)CN1CCCC1=O [Piracetam] | 0 | 9 | -21 | Q4 | 0 |  |  |  |  |  |  |  |  |
| Cc1nc2ccccn2c(=O)c1CCN1CCC(C(=O)c2ccc(F)cc2)CC1 [Pirenperone] | 0 | 20 | 2 | Q4 | 1 |  |  |  |  |  |  |  |  |
| Cc1cc(CC(C)CC(C)(C)C)n(O)c(=O)c1.NCCO (stereo not shown) [Piroctone Olamine] |  |  |  | Q4 | 1 |  |  |  |  |  | 1 | 39 | 44 |
| CCn1cc(C(=O)O)c(=O)c2cnc(N3CCCC3)nc21 [Piromidic Acid] | 0 | 7 | -30 | Q4 | 1 |  |  |  |  |  |  |  |  |
| CN1C(C(=O)Nc2ccccn2)=C(O)c2ccccc2S1(=O)=O [Piroxicam] | 0 | 19 | 4 | Q4 | 1 |  |  |  |  |  |  |  |  |
| CCCCOc1ccc(OCCCN2CCOCC2)cc1 [Pramocaine] | 0 | 13 | 14 | Q4 | 0 |  |  |  |  |  |  |  |  |
| CC(C(=O)O)c1ccc2c(c1)Cc1cccnc1O2 (stereo not shown) [Pranoprofen] | 0 |  | -14 | Q4 | 1 |  |  |  |  | 8 |  |  |  |
| CC[C@H](C)C(=O)O[C@H]1C[C@H](O)C=C2C=C[C@H](C)[C@H](CC[C@@H](O)C[C@@H](O)CC(=O)O)[C@H]21 [Pravastatin Sodium] | 0 |  |  | Q4 | 1 |  |  |  |  |  |  | 11 | 21 |
| CC[C@H](C)C(=O)O[C@H]1C[C@H](O)C=C2C=C[C@H](C)[C@H](CC[C@@H](O)C[C@@H](O)CC(=O)O)[C@H]21 [Pravastatin] | 0 | 10 |  | Q4 | 1 |  |  |  |  |  |  |  | 10 |
| C[C@]12C=CC(=O)C=C1CC[C@@H]1[C@@H]2[C@@H](O)C[C@@]2(C)[C@H]1CC[C@]2(O)C(=O)COC(=O)CCC(=O)O [Prednisolone Hemisuccinate] | 3 |  |  |  |  | 96 | 106 | Q2 | 3 |  |  |  |  |
| CC(=O)[C@H]1CC[C@H]2[C@@H]3CC=C4C[C@@H](O)CC[C@]4(C)[C@H]3CC[C@]12C [Pregnenolone] |  |  |  | Q4 | 1 |  |  |  |  |  | 0 | 12 | −11 |
| OC(CCN1CCCCC1)(c1ccccc1)c1ccccc1 [Pridinol] | 0 | 4 | -18 | Q4 | 1 |  |  |  |  |  |  |  |  |
| CCCNC(C)C(=O)Nc1ccccc1C (stereo not shown) [Prilocaine] | 0 | 12 | -3 | Q4 | 0 |  |  |  |  |  |  |  |  |
| CC(C)(Sc1cc(C(C)(C)C)c(O)c(C(C)(C)C)c1)Sc1cc(C(C)(C)C)c(O)c(C(C)(C)C)c1 [Probucol] | 0 | -1 | 12 | Q4 | 0 |  |  |  |  |  |  |  |  |
| CCN(CC)CCOC(=O)c1ccc(N)cc1 [Procaine, Novocain] |  |  |  | Q4 | 0 |  |  |  |  |  | 0 | 25 | −10 |
| CCC(NC(C)C)C(O)c1ccc(O)c2[nH]c(=O)ccc12 (stereo not shown) [Procaterol] | 0 | 21 | 16 | Q4 | 1 |  |  |  |  |  |  |  |  |
| O=C(O)CCc1nc2ccccc2[nH]1 [Procodazole] | 0 | 15 | -15 | Q4 | 1 |  |  |  |  |  |  |  |  |
